The values below come from patent US20110144205A1, “Blood Glutathione as a Biomarker for Screening Asymptomatic Patients at Risk for Heart Failure” (INSERM (Institut National de la Recherche Medicale), priority 2008, published 2011).

Experiment [1] deals with cardiomyopathic mice with missense LMNA mutation. The note with it: oral NAC treatment; cited from earlier work.
The test system is the same in experiment [2]. Put plainly: Mouse model carrying a missense LMNA mutation and developing a dilated cardiomyopathy. It counts as in vivo. The note with it: oral treatment, mouse model with missense LMNA mutation.
The subject of experiment [3] is postoperative atrial fibrillation. The note with it: cited from earlier work.
In experiment [4] the test system is mouse model of human hypertrophic cardiomyopathy. The note with it: oral NAC treatment; cited from earlier work.
In experiment [5] the test system is heart-failing hypertensive rats. The note with it: oral NAC treatment; cited from earlier work.

For the compound `CC(=O)N[C@@H](CS)C(=O)O` [NAC, N-acetylcysteine], the “cardiac structure and function” value is “improves cardiac structure and function” in experiment [1]; “improves cardiac structure and function” in experiment [5]. Further, the “heart structure and function” value in experiment [2] was “significantly improved heart structure and function”. The “incidence of postoperative atrial fibrillation (AF)” value in experiment [3] (intravenous infusion for 1 h before and 48 h after cardiac surgery, Ozaydin et al. 2008) was “decreased the incidence of postoperative atrial fibrillation”. For the same compound, in experiment [3] (oral NAC treatment, patients), the post-operative atrial fibrillation entry is on record as “prevents post-operative atrial fibrillation”. Besides, the established hypertrophy entry in experiment [4] is recorded as “reverses established hypertrophy”.
